Test results as given in ChEMBL document CHEMBL1152364, “Dipeptidyl nitrile inhibitors of Cathepsin L” (Bioorg Med Chem Lett, 2009).

Key:
Procathepsin L = Procathepsin L (Homo sapiens, UniProt P07711); test: Inhibition of cathepsin L
Cathepsin L2 = target: T1, Cathepsin L2 (Homo sapiens, UniProt O60911); test: Inhibition of cathepsin L2
T1 sequence (O60911 whole entry): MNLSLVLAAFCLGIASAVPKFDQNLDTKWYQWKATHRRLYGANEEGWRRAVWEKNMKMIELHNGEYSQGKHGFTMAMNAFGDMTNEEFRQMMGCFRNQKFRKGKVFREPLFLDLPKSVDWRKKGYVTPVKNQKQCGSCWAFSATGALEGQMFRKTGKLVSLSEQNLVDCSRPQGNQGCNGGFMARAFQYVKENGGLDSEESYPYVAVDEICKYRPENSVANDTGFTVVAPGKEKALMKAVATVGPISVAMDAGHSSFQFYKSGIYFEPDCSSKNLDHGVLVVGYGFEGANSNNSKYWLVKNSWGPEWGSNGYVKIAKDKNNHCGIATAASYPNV

Cathepsin S = Cathepsin S (Homo sapiens, UniProt P25774); test: Inhibition of cathepsin S
Cathepsin K = target: T2, Cathepsin K (Homo sapiens, UniProt P43235); test: Inhibition of cathepsin K
T2 sequence (P43235 whole entry): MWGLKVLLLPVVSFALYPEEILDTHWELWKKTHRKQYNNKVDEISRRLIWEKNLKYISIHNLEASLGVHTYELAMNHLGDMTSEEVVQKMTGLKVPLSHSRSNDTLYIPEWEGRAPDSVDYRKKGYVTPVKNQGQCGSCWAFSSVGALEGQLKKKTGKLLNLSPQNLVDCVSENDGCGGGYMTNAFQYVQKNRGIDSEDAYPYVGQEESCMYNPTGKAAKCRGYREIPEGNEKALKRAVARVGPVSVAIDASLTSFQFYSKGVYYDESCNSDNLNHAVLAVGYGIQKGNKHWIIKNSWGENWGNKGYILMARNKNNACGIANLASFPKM

Cathepsin B = Cathepsin B (Homo sapiens, UniProt P07858); test: Inhibition of cathepsin B

Sequence of Procathepsin L (P07711 whole entry): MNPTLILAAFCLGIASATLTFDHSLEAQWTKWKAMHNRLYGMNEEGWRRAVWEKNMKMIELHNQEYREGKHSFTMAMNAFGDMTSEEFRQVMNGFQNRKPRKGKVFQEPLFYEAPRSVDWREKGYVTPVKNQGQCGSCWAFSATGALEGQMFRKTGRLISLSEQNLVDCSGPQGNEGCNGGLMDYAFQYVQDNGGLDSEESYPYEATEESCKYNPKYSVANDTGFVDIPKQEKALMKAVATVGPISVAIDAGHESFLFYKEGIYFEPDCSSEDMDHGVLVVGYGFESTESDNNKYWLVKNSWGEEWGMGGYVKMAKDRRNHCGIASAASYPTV
Sequence of Cathepsin S (P25774 whole entry): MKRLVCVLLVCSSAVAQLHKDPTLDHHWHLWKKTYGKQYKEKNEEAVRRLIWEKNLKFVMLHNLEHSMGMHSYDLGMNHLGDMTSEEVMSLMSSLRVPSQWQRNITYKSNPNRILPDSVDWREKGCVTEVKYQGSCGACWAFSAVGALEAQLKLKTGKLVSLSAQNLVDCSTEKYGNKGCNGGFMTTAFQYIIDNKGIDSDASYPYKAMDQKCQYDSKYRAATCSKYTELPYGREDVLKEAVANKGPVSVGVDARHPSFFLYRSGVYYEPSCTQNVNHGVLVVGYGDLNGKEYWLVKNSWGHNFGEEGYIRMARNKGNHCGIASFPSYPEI

SMILES | IC50 (Procathepsin L) [nM] | IC50 (Cathepsin L2) [nM] | IC50 (Cathepsin S) [nM] | IC50 (Cathepsin K) [nM] | IC50 (Cathepsin B) [nM]
N#CCNC(=O)[C@H](Cc1cccc(Cl)c1)NC(=O)c1cccc2c1CCCC2 | 398 | > 10000 | > 10000 | > 10000 | > 10000
N#CCNC(=O)[C@H](Cc1cccc(Cl)c1)NC(=O)C1=CCCCC1 | 501 | 398 | 2000 | > 10000 | > 10000
N#CCNC(=O)[C@H](Cc1cccc(Cl)c1)NC(=O)C1CCCCC1 | 1260 | 6310 | 2510 | > 10000 | > 10000
Cc1cc(C(=O)N[C@@H](Cc2cccc(Cl)c2)C(=O)NCC#N)n(C)n1 | 501 | 1260 | 794 | 6310 | > 10000
Cc1ccccc1C(=O)N[C@@H](Cc1cccc(Cl)c1)C(=O)NCC#N | 794 | 5010 | 1580 | 5010 | > 10000
Cc1nc(C)c(C(=O)N[C@@H](Cc2cccc(Cl)c2)C(=O)NCC#N)s1 | 398 | 251 | 200 | 1260 | 10000
Cc1nn(C)cc1C(=O)N[C@@H](Cc1cccc(Cl)c1)C(=O)NCC#N | 1260 | 1260 | 1260 | 2510 | > 10000
N#CCNC(=O)[C@H](Cc1cccc(Cl)c1)NC(=O)C1CCCCCC1 | 316 | 6310 | 2510 | 5010 | > 10000
Cc1nc(C(=O)N[C@@H](Cc2cccc(Cl)c2)C(=O)NCC#N)c(C)o1 | 631 | 2510 | 794 | 10000 | > 10000
Cc1ccc(C(=O)N[C@@H](Cc2cccc(Cl)c2)C(=O)NCC#N)cc1 | 251 | 1000 | 631 | 1260 | 2510
Cc1cccc(C(=O)N[C@@H](Cc2cccc(Cl)c2)C(=O)NCC#N)c1C | 316 | 3980 | 2000 | > 10000 | > 10000

Further compounds by falling IC50 (Procathepsin L), results first:

IC50 (Procathepsin L) [nM] | IC50 (Cathepsin L2) [nM] | IC50 (Cathepsin S) [nM] | IC50 (Cathepsin K) [nM] | IC50 (Cathepsin B) [nM] | SMILES
251 | 794 | 398 | 6310 | 5010 | Cc1cccc(C(=O)N[C@@H](Cc2cccc(Cl)c2)C(=O)NCC#N)c1
251 | 3980 | 3160 | > 10000 | 10000 | N#CCNC(=O)[C@H](Cc1cccc(Cl)c1)NC(=O)c1cccc2ccccc12
100 | 3160 | 3160 | > 10000 | > 10000 | N#CCNC(=O)[C@H](Cc1cccc(Cl)c1)NC(=O)c1ccnc2ccccc12
79.4 | 501 | 794 | 2000 | 5010 | CC(C)c1cc(C(=O)N[C@@H](Cc2cccc(Cl)c2)C(=O)NCC#N)n(C)n1
79.4 | 501 | 794 | 5010 | 2000 | Cc1cc(C(=O)N[C@@H](Cc2cccc(Cl)c2)C(=O)NCC#N)c(C)s1
79.4 | 200 | 200 | 6310 | 3980 | N#CCNC(=O)[C@H](Cc1cccc(Cl)c1)NC(=O)c1cccc(Cl)c1
79.4 | 1580 | 1260 | 6310 | 5010 | Cc1ccc(C)c(C(=O)N[C@@H](Cc2cccc(Cl)c2)C(=O)NCC#N)c1
63.1 | 501 | 794 | 5010 | 7940 | CCc1cc(C(=O)N[C@@H](Cc2cccc(Cl)c2)C(=O)NCC#N)n(C)n1
50.1 | 200 | 316 | > 10000 | 7940 | Cc1cc(C)cc(C(=O)N[C@@H](Cc2cccc(Cl)c2)C(=O)NCC#N)c1
20 | 1000 | 1000 | > 10000 | > 10000 | Cc1cc(C(=O)N[C@@H](Cc2cccc(Cl)c2)C(=O)NCC#N)c2cc(C)ccc2c1
